# In patent publication US9464076B2, “Benzothiophene derivative” (Daiichi Sankyo Company, Limited, priority 2013, dated 2016):
# Structures can show the parent of a compound that is named as a salt.
# Molecular target: PDE10A (Homo sapiens (Human), UniProt Q9Y233)
# Assay: Measurement of PDE10A inhibitory activity-2 (PDE10A fraction prepared from MOLT-4 cells)
# Format: biochemical
# Details: PDE10A fraction from MOLT-4 cells (peak around 250 mM NaCl)
# Procedure: A human acute lymphoblastic lymphoma T cell line MOLT-4 (which can be purchased under ATCC No. CRL-1582 from ATCC) was cultured in an RPMI1640 medium containing 10% fetal bovine serum to obtain 5×10^8 MOLT-4 cells. The cells were recovered by centrifugation and suspended in 10 ml of buffer solution A (25 mM Tris-HCl, 5 mM 2-mercaptoethanol, 2 mM benzamidine, 2 mM EDTA, and 0.1 mM 4-(2-aminoethyl)benzenesulfonyl hydrochloride, pH 7.5). The cells were homogenized using a Polytron homogenizer and centrifuged (4° C., 25,000 g, 10 minutes). Then, the supernatant was further ultracentrifuged (4° C., 100,000 g, 60 minutes). The obtained supernatant was filtered through a 0.2 μm filter to obtain a soluble fraction.
# HiTrap Q HP column (5 ml×2, GE Healthcare Japan Corp.) equilibrated with buffer solution A was charged with the obtained soluble fraction. Phosphodiesterase was eluted with 300 ml of buffer solution A containing a linear gradient solution of 0 to 0.8 M NaCl to recover sixty 5-ml fractions. Each fraction was tested for cAMP-metabolizing phosphodiesterase activity.
# On the other hand, total RNA was prepared from Jurkat cells, one type of human T cell, and similarly subjected to RT-PCR. […] Eur J Biochem. 1999, 266 (3), 1118-2 has reported that PDE10A from the rat striatum and testis is eluted as an active peak centered around 250 mM NaCl.
# For these reasons, this fraction was used as a solution for the evaluation of PDE10A inhibitory activity. The obtained solution was used to calculate the inhibitory activity (IC50) of a test compound in the same way as in the aforementioned test.
# Sequence of PDE10A (Q9Y233 whole entry): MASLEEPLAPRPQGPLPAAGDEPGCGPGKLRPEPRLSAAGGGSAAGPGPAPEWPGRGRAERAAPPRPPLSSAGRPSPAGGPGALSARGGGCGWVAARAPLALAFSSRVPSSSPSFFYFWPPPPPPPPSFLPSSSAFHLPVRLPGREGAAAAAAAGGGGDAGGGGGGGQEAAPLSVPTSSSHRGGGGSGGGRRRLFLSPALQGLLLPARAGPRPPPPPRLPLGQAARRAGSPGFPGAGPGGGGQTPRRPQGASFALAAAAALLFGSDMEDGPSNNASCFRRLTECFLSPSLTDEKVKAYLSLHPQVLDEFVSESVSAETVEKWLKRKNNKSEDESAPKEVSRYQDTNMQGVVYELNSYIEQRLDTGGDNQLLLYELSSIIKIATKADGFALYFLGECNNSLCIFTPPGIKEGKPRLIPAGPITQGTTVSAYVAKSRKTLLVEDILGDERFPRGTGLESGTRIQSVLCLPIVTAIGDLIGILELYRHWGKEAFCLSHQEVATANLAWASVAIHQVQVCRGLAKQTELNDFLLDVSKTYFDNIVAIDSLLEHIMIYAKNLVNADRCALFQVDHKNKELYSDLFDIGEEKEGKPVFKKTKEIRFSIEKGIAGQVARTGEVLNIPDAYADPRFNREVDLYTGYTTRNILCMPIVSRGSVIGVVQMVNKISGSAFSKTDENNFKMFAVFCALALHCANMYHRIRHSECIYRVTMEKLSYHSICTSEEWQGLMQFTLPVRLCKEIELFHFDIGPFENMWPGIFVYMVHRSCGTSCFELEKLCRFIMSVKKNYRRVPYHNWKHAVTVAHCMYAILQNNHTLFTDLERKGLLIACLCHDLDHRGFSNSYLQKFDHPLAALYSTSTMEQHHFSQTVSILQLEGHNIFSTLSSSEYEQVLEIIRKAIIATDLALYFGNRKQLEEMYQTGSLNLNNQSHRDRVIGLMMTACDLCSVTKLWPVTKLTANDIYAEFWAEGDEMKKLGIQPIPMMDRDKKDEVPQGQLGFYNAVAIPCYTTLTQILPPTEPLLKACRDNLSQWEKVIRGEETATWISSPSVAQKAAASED
row,IC50 [nM],SMILES
1,0.22,"[2H]C([2H])([2H])OC1CN(C(=O)c2cccc3nc(NC(=O)c4sc5c(C(C)=O)ccc(C([2H])([2H])OC)c5c4C)ccc23)C1 [Example 123, 7-Acetyl-N-(5-((3-(^2H3)methoxyazetidin-1-yl)carbonyl)quinolin-2-yl)-4-(methoxy(^2H2)methyl)-3-methylbenzo[b]thiophene-2-carboxamide]"
2,2.6,"CCCC(=O)c1cccc2c(C)c(C(=O)Nc3cc(C(C)(C)O)c4ccccc4n3)sc12 [Example 17, 7-Butyryl-N-(4-(2-hydroxypropan-2-yl)quinolin-2-yl)-3-methylbenzo[b]thiophene-2-carboxamide]"
3,2,"CC(=O)c1ccc(C(C)=O)c2c(C)c(C(=O)Nc3cc(C(C)O)c4ccccc4n3)sc12 (stereo not drawn) [Example 13, 4,7-Diacetyl-N-(4-(1-hydroxyethyl)quinolin-2-yl)-3-methylbenzo[b]thiophene-2-carboxamide]"
4,12,"CC(=O)c1ccc(C(C)=O)c2sc(C(=O)Nc3cc(C(C)(C)O)c4ccccc4n3)cc12 [Example 8, 4,7-Diacetyl-N-(4-(2-hydroxypropan-2-yl)quinolin-2-yl)benzo[b]thiophene-2-carboxamide]"
5,0.85,"COCc1ccc(C(C)=O)c2sc(C(=O)Nc3cc(CN4CCC(F)(F)C4)c4ccccc4n3)c(C)c12 [Example 48, 7-Acetyl-N-(4-((3,3-difluoropyrrolidin-1-yl)methyl)quinolin-2-yl)-4-(methoxymethyl)-3-methylbenzo[b]thiophene-2-carboxamide]"
6,0.91,"COCc1ccc(C(C)=O)c2sc(C(=O)Nc3ccc4c(C(C)=O)cccc4n3)c(C)c12 [Example 75, 7-Acetyl-N-(5-acetylquinolin-2-yl)-4-(methoxymethyl)-3-methylbenzo[b]thiophene-2-carboxamide]"
7,3,"CCOCc1ccc(C(C)=O)c2sc(C(=O)Nc3cc(C(C)(C)O)c4ccccc4n3)c(C)c12 [Example 29, 7-Acetyl-4-(ethoxymethyl)-N-(4-(2-hydroxypropan-2-yl)quinolin-2-yl)-3-methylbenzo[b]thiophene-2-carboxamide]"
8,25,"CCC(CC)C(=O)c1cccc2c(C)c(C(=O)Nc3cc(C(C)(C)O)c4ccccc4n3)sc12 [Example 24, 7-(2-Ethylbutanoyl)-N-(4-(2-hydroxypropan-2-yl)quinolin-2-yl)-3-methylbenzo[b]thiophene-2-carboxamide]"
9,5,"CCc1c(C(=O)Nc2cc(C(C)(C)O)c3ccccc3n2)sc2c(C(C)=O)ccc(C(C)=O)c12 [Example 7, 4,7-Diacetyl-3-ethyl-N-(4-(2-hydroxypropan-2-yl)quinolin-2-yl)benzo[b]thiophene-2-carboxamide]"
10,10,"CCCCC(=O)c1cccc2c(C)c(C(=O)Nc3cc(C(C)(C)O)c4ccccc4n3)sc12 [Example 20, N-(4-(2-Hydroxypropan-2-yl)quinolin-2-yl)-3-methyl-7-pentanoylbenzo[b]thiophene-2-carboxamide]"
11,11,"CCCOCc1ccc(C(C)=O)c2sc(C(=O)Nc3cc(C(C)(C)O)c4ccccc4n3)c(C)c12 [Example 30, 7-Acetyl-N-(4-(2-hydroxypropan-2-yl)quinolin-2-yl)-3-methyl-4-(propoxymethyl)benzo[b]thiophene-2-carboxamide]"
12,16,"CC(=O)c1ccc(COC(C)C)c2c(C)c(C(=O)Nc3cc(C(C)(C)O)c4ccccc4n3)sc12 [Example 31, 7-Acetyl-N-(4-(2-hydroxypropan-2-yl)quinolin-2-yl)-4-(isopropoxymethyl)-3-methylbenzo[b]thiophene-2-carboxamide]"
13,1.6,"CCOCc1cccc2nc(NC(=O)c3sc4c(C(C)=O)ccc(COC)c4c3C)ccc12 [Example 70, 7-Acetyl-N-(5-(ethoxymethyl)quinolin-2-yl)-4-(methoxymethyl)-3-methylbenzo[b]thiophene-2-carboxamide]"
14,1.5,"CC(=O)c1ccc(C(C)=O)c2c(C)c(C(=O)Nc3cc(CN4CCC(O)C4)c4ccccc4n3)sc12 (stereo not drawn) [Example 51, 4,7-Diacetyl-N-(4-((3-hydroxypyrrolidin-1-yl)methyl)quinolin-2-yl)-3-methylbenzo[b]thiophene-2-carboxamide]"
15,2.1,"CC(=O)c1ccc(CO)c2c(C)c(C(=O)Nc3ccc4c(CO)cccc4n3)sc12 [Example 114, 7-Acetyl-4-(hydroxymethyl)-N-(5-(hydroxymethyl)quinolin-2-yl)-3-methylbenzo[b]thiophene-2-carboxamide]"
16,12,"COCc1ccc(C(C)=O)c2sc(C(=O)Nc3ccc4c(C(=O)OC)cccc4n3)c(C)c12 [Example 92, Methyl 2-(7-acetyl-4-(methoxymethyl)-3-methylbenzo[b]thiophene-2-carboxamido)quinoline-5-carboxylate]"
17,2.6,"CC(=O)c1ccc(C(C)=O)c2c(C)c(C(=O)Nc3cc(C(C)(C)O)c4ccccc4n3)sc12 [Example 2, 4,7-Diacetyl-N-(4-(2-hydroxypropan-2-yl)quinolin-2-yl)-3-methylbenzo[b]thiophene-2-carboxamide]"
18,2.6,"COCc1ccc(C(C)=O)c2sc(C(=O)Nc3cc(C(=O)N4CC[C@@H](O)C4)c4ccccc4n3)c(C)c12 [Example 50, (R)-7-Acetyl-N-(4-((3-hydroxypyrrolidin-1-yl)carbonyl)quinolin-2-yl)-4-(methoxymethyl)-3-methylbenzo[b]thiophene-2-carboxamide]"
19,0.86,"COCc1ccc(C(C)=O)c2sc(C(=O)Nc3ccc4c(COC(C)=O)cccc4n3)c(C)c12 [Example 83, (2-(7-Acetyl-4-(methoxymethyl)-3-methylbenzo[b]thiophene-2-carboxamido)quinolin-5-yl)methylacetate]"
20,1,"Cc1c(C(=O)Nc2cc(C(C)(C)O)c3ccccc3n2)sc2c(C(=O)C(C)(C)C)cccc12 [Example 22, N-(4-(2-Hydroxypropan-2-yl)quinolin-2-yl)-3-methyl-7-pivaloylbenzo[b]thiophene-2-carboxamide]"
21,7.8,"CC(=O)c1ccc(C(C)O)c2c(C)c(C(=O)Nc3cc(C(C)(C)O)c4ccccc4n3)sc12 (stereo not drawn) [Example 9, 7-Acetyl-4-(1-hydroxyethyl)-N-(4-(2-hydroxypropan-2-yl)quinolin-2-yl)-3-methylbenzo[b]thiophene-2-carboxamide]"
22,0.29,"[2H]C([2H])([2H])OC1CN(C(=O)c2cccc3nc(NC(=O)c4sc5c(C(C)=O)ccc(COC)c5c4C)ccc23)C1 [Example 122, 7-Acetyl-N-(5-((3-(^2H3)methoxyazetidin-1-yl)carbonyl)quinolin-2-yl)-4-(methoxymethyl)-3-methylbenzo[b]thiophene-2-carboxamide]"
23,0.085,"COCc1ccc(C(=O)C(C)(C)C)c2sc(C(=O)Nc3cc(CN4CC[C@@H](O)C4)c4ccccc4n3)c(C)c12 [Example 58, (R)—N-(4-((3-Hydroxypyrrolidin-1-yl)methyl)quinolin-2-yl)-4-(methoxymethyl)-3-methyl-7-pivaloylbenzo[b]thiophene-2-carboxamide dihydrochloride]"
24,20,"CCC(=O)c1ccc(C(C)=O)c2sc(C(=O)Nc3cc(C(C)(C)O)c4ccccc4n3)c(C)c12 [Example 10, 7-Acetyl-N-(4-(2-hydroxypropan-2-yl)quinolin-2-yl)-3-methyl-4-propionylbenzo[b]thiophene-2-carboxamide]"
25,0.11,"COCc1ccc(C(C)=O)c2sc(C(=O)Nc3ccc4c(C(=O)O)cccc4n3)c(C)c12 [Example 93, 2-(7-Acetyl-4-(methoxymethyl)-3-methylbenzo[b]thiophene-2-carboxamido)quinoline-5-carboxylic acid]"
26,6.2,"COCc1ccc(C(C)=O)c2sc(C(=O)Nc3cc(CN4CCCC4)c4ccccc4n3)c(C)c12 [Example 43, 7-Acetyl-4-(methoxymethyl)-3-methyl-N-(4-(pyrrolidin-1-ylmethyl)quinolin-2-yl)benzo[b]thiophene-2-carboxamide]"
27,2.2,"CC(=O)c1ccc(C(C)=O)c2c(C)c(C(=O)Nc3cc(C)c4ccccc4n3)sc12 [Example 11, 4,7-Diacetyl-3-methyl-N-(4-methylquinolin-2-yl)benzo[b]thiophene-2-carboxamide]"
28,0.94,"COCc1ccc(C(C)=O)c2sc(C(=O)Nc3cc(CN(C)CCO)c4ccccc4n3)c(C)c12 [Example 34, 7-Acetyl-N-(4-(((2-hydroxyethyl)(methyl)amino)methyl)quinolin-2-yl)-4-(methoxymethyl)-3-methylbenzo[b]thiophene-2-carboxamide dihydrochloride]"
29,0.47,"Cc1c(C(=O)Nc2cc(C(C)(C)O)c3ccccc3n2)sc2c(C(=O)C(C)C)cccc12 [Example 18, N-(4-(2-Hydroxypropan-2-yl)quinolin-2-yl)-7-isobutyryl-3-methylbenzo[b]thiophene-2-carboxamide]"
30,0.92,"Cc1c(C(=O)Nc2cc(C(C)(C)O)c3ccccc3n2)sc2c(C(=O)C3CC3)cccc12 [Example 19, 7-(Cyclopropylcarbonyl)-N-(4-(2-hydroxypropan-2-yl)quinolin-2-yl)-3-methylbenzo[b]thiophene-2-carboxamide]"
